# In patent US12247019B2 (Centaurus Therapeutics, priority 2018, dated 2025):
# Target: T1, Des1 (Homo sapiens, UniProt O15121)
# T1 sequence (O15121 1-323): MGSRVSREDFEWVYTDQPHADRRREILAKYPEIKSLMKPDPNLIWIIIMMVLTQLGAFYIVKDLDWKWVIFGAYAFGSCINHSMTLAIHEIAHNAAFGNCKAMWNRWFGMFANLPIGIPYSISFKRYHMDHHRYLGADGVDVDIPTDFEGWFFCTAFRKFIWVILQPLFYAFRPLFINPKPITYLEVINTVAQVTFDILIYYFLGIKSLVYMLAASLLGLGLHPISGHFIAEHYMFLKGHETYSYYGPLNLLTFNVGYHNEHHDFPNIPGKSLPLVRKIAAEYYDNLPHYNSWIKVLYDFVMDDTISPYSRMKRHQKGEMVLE
# Assay: Jurkat T cell measurement of conversion of dihydroceramide to ceramide (Des1 activity, LC-MS/MS of NBD-C6-ceramide)
# Type: cell-based
# Design: endogenous in cells; host or cells: Jurkat clone E6-1
# Conditions: Jurkat clone E6-1 cells, 10 μM NBD-C6-dihydroceramide, 3 hours at 37° C.; for inhibition at 0.5 µM: 0.5 uM compound, read-out: Des1 % Inhib (0.5 uM); for IC50: read-out: Des1 IC50
# Description: Jurkat T Cell Measurement of Conversion of Dihydroceramide to Ceramide
# Jurkat clone E6-1 cells were grown and then seeded at 10^6 cells/mL in a 96-well plate (400 μL in each well. The cells were administered 100 μL of cell culture media containing 50-μM NBD-C6-dihydroceramide (Des1 substrate), affording a final concentration of substrate of 10 μM. The cells were incubated with substrate at 4° C. for 30 minutes. Following the incubation at 4° C., the cell suspension was centrifuged at 1200 rpm for 3 minutes, and the cell pellet is resuspended in 400 μL of fresh media containing various concentrations of either fenretinide (known Des1 inhibitor control compound) or test article. The final concentrations of control compound and test compounds were tested in a range from 0-10 μM. The cells and compounds were incubated at 37° C. for 3 hours. Following the 3-hour incubation, the plate was centrifuged at 2500 g for 3 minutes at 4° C., followed by collection and transfer of 200 μL of the supernatant to a new 96-well plate with 300 μL of methanol an containing appropriate internal standards for liquid chromatography/tandem mass spectroscopy (LC/MS/MS) analysis (internal standard: 500 nM labetalol and 100 nM alprazolam). The samples were vortexed for 2 minutes followed by centrifugation at 3,220 g for 20 minutes. Following centrifugation, 200 μL of the supernatant was transferred to a new 96-well plate for LC-MS/MS analysis to determine the amount of NBD-C6-ceramide (Des1 product) produced. The assay was typically performed in duplicate. A reduction of at least 30% compared to vehicle control (0 μM test article) is indicative of an active compound, and a reduction of 75% compared to vehicle control is preferred.
Structure (SMILES),inhibition at 0.5 µM,IC50
"CC(C)c1ccc(S(=O)(=O)Nc2ccc(O)cn2)cc1 [Example 61, N-(5-Hydroxypyridin-2-yl)-4-(propan-2-yl)benzene-1-sulfonamide]",37.5%,
"O=C(Nc1ccc(O)cn1)N1CCN(c2ccccc2F)CC1 [Example 12, 4-(2-fluorophenyl)-N-(5-hydroxypyridin-2-yl)piperazine-1-carboxamide]",90.5%,54 nM
"O=C(Nc1ccc(O)cc1)N1CCN(c2ccc(C(F)(F)F)cn2)CC1 [Example 31, N-(4-hydroxyphenyl)-4-[5-(trifluoromethyl)pyridin-2-yl]piperazine-1-carboxamide]",,340 nM
"O=C(Nc1ccc(O)cn1)OC1CCN(c2ccc(C(F)(F)F)cc2)CC1 [Example 57, 1-[4-(trifluoromethyl)phenyl] piperidin-4-yl N-(5-hydroxypyridin-2-yl) carbamate]",95.5%,1 nM
O=C(Nc1ccc(O)cn1)N1CCC(c2cccc(Cl)c2)CC1 [Example 7],94%,26 nM
"Cn1ncc2ccc(N3CCN(C(=O)Nc4ccc(O)cn4)CC3)cc21 [Example 82, N-(5-hydroxypyridin-2-yl)-4-(1-methyl-1H-indazol-6-yl)piperazine-1-carboxamide]",78.4%,
"O=C(Nc1ccc(O)cn1)NC1CCCCC1 [Example 21, 1-cyclohexyl-3-(5-hydroxypyridin-2-yl)urea]",69.3%,
"O=C(Nc1ccc(O)cn1)OC1CCN(c2ccc(C(F)(F)F)cn2)CC1 [Example 60, 1-[5-(trifluoromethyl)pyridin-2-yl]piperidin-4-yl N-(5-hydroxypyridin-2-yl)carbamate]",96%,3 nM
"O=C(Nc1ccc(O)cn1)N1CCN(c2ncccn2)CC1 [Example 16, N-(5-hydroxypyridin-2-yl)-4-(pyrimidin-2-yl)piperazine-1-carboxamide]",31.4%,
"O=C(Nc1ccc(O)cn1)N1CCN(c2cnn(-c3ccccc3)c2)CC1 [Example 80, N-(5-hydroxypyridin-2-yl)-4-(1-phenyl-1H-pyrazol-4-yl)piperazine-1-carboxamide]",56.9%,
"CCCCCCOC(=O)Nc1ccc(O)cn1 [Example 41, Hexyl N-(5-hydroxypyridin-2-yl)carbamate]",95.1%,13 nM
"CC(C)(C)c1ccc(S(=O)(=O)Nc2ccc(O)cn2)cc1 [Example 62, 4-tert-Butyl-N-(5-hydroxypyridin-2-yl)benzene-1-sulfonamide]",69.4%,310 nM
"O=S(=O)(Nc1ccc(O)cn1)N1CCN(c2ccc(Cl)cc2)CC1 [Example 74, 4-(4-chlorophenyl)-N-(5-hydroxypyridin-2-yl)piperazine-1-sulfonamide]",72.8%,
"O=C(Nc1ccc(O)cn1)OC1CCN(c2ccc(F)cc2)CC1 [Example 53, 1-(4-fluorophenyl)piperidin-4-yl N-(5-hydroxypyridin-2-yl)carbamate]",94.8%,4 nM
"O=S(=O)(Nc1ccc(O)cn1)C1CCN(Cc2ccccc2)CC1 [Example 65, 1-benzyl-N-(5-hydroxypyridin-2-yl)piperidine-4-sulfonamide]",,> 1000 nM
"O=S(=O)(Nc1ccc(O)cn1)N1CCC(c2ccc(Cl)cc2)CC1 [Example 71, 4-(4-chlorophenyl)-N-(5-hydroxypyridin-2-yl)piperidine-1-sulfonamide]",88%,31 nM
"O=C(Nc1ccc(O)cn1)OC1CCN(c2ccc(F)cn2)CC1 [Example 56, 1-(5-fluoropyridin-2-yl)piperidin-4-yl N-(5-hydroxypyridin-2-yl)carbamate]",94.7%,28 nM
"O=C(Nc1ccc(O)cn1)N1CCN(c2cccnc2)CC1 [Example 39, 1-[((5-Hydroxypyridin-2-yl)amino)carbonyl]-4-(pyridin-3-yl)piperazine]",9.11%,
"O=C(Nc1ccc(O)cn1)OC1CCN(c2ccccn2)CC1 [Example 59, 1-(pyridin-2-yl)piperidin-4-yl N-(5-hydroxypyridin-2-yl)carbamate]",93.2%,43 nM
"O=C(Nc1ccc(O)cn1)N1CCN(c2ccc(F)c(F)c2)CC1 [Example 25, 4-(3,4-difluorophenyl)-N-(5-hydroxypyridin-2-yl)piperazine-1-carboxamide]",,9 nM
"O=S(=O)(Nc1ccc(O)cn1)C1CCN(c2ccc(C(F)(F)F)cc2)CC1 [Example 69, N-(5-hydroxypyridin-2-yl)-1-[4-(trifluoromethyl)phenyl]piperidine-4-sulfonamide]",95%,40 nM
"CC(C)CCCCCS(=O)(=O)Nc1ccc(O)cn1 [Example 70, N-(5-Hydroxypyridin-2-yl)-6-methylheptane-1-sulfonamide]",83.8%,110 nM
"O=C(Nc1ccc(O)cn1)NC1CCN(c2ccc(F)cn2)CC1 [Example 49, 1-[1-(5-fluoropyridin-2-yl)piperidin-4-yl]-3-(5-hydroxypyridin-2-yl)urea]",,130 nM
"COc1ccc(C2CCN(C(=O)Nc3ccc(O)cn3)CC2)cc1 [Example 6, N-(5-Hydroxypyridin-2-yl)-4-(4-methoxyphenyl)piperidine-1-carboxamide]",81.8%,69 nM

# The remaining lines, values ahead:
inhibition at 0.5 µM,IC50,Structure (SMILES)
91.9%,35 nM,"O=C(Nc1ccc(O)cn1)N1CCN(Cc2ccc(F)c(F)c2)CC1 [Example 77, 4-[(3,4-difluorophenyl)methyl]-N-(5-hydroxypyridin-2-yl)piperazine-1-carboxamide]"
92.7%,21 nM,"O=C(Nc1ccc(O)cn1)N1CCCN(c2ccc(F)c(F)c2)CC1 [Example 87, 4-(3,4-difluorophenyl)-N-(5-hydroxypyridin-2-yl)-1,4-diazepane-1-carboxamide]"
72.1%,,"O=S(=O)(Nc1ccc(O)cn1)C1CCN(c2ccc(F)cc2)CC1 [Example 66, 1-(4-fluorophenyl)-N-(5-hydroxypyridin-2-yl)piperidine-4-sulfonamide]"
97%,6 nM,"O=C(Nc1ccc(O)cn1)O[C@H]1CC[C@H](c2ccccc2)CC1 [Example 43, (1r,4r)-4-Phenylcyclohexyl N-(5-hydroxypyridin-2-yl)carbamate]"
,10 nM,"O=C(Nc1ccc(O)cn1)N1CCN(c2ccc(Cl)cc2Cl)CC1 [Example 23, 4-(2,4-dichlorophenyl)-N-(5-hydroxypyridin-2-yl)piperazine-1-carboxamide]"
85.4%,,"N#Cc1ccc(N2CCN(C(=O)Nc3ccc(O)cn3)CC2)nc1 [Example 34, 4-(5-cyanopyridin-2-yl)-N-(5-hydroxypyridin-2-yl)piperazine-1-carboxamide]"
94.3%,23 nM,"O=C(Nc1ccc(O)cn1)N1CCC(c2ccc(Cl)cc2)CC1 [Example 4, 4-(4-Chlorophenyl)-N-(5-hydroxypyridin-2-yl)piperidine-1-carboxamide]"
91.3%,3 nM,"O=C(Nc1ccc(O)cn1)N1CCN(c2cccc(F)n2)CC1 [Example 35, 4-(6-fluoropyridin-2-yl)-N-(5-hydroxypyridin-2-yl)piperazine-1-carboxamide]"
92.7%,25 nM,"O=C(Oc1ccc(O)cn1)N1CCN(c2ccc(C(F)(F)F)cn2)CC1 [Example 88, 5-hydroxypyridin-2-yl 4-[5-(trifluoromethyl)pyridin-2-yl]piperazine-1-carboxylate]"
92.4%,85 nM,"O=S(=O)(Nc1ccc(O)cn1)C1CCN(c2ccc(Cl)cc2)CC1 [Example 68, 1-(4-chlorophenyl)-N-(5-hydroxypyridin-2-yl)piperidine-4-sulfonamide]"
91.2%,62 to 86 nM,"O=S(=O)(Nc1ccc(O)cn1)N1CCN(c2ccc(C(F)(F)F)cc2)CC1 [Example 75, N-(5-hydroxypyridin-2-yl)-4-(4-(trifluoromethyl)phenyl)-piperazine-1-sulfonamide]"
39.8%,,"O=C(Nc1ccc(O)cn1)NC1CCCN(c2ccc(Cl)cc2)C1 (stereo not shown) [Example 48, 1-[1-(4-chlorophenyl)piperidin-3-yl]-3-(5-hydroxypyridin-2-yl)urea]"
,180 nM,"O=C(Nc1ccc(O)cn1)NC1CCN(c2ccccc2)CC1 [Example 32, 3-(5-hydroxypyridin-2-yl)-1-(1-phenylpiperidin-4-yl)urea]"
